Assay [1] has as its target T1, ACE (Rattus norvegicus, UniProt P47820).
T1 construct: membrane fraction prepared from rat lung; from tissue; host or cells: rat lung, membrane fraction (method of Wu-Wong et al.)
T1 sequence (P47820 36-1313): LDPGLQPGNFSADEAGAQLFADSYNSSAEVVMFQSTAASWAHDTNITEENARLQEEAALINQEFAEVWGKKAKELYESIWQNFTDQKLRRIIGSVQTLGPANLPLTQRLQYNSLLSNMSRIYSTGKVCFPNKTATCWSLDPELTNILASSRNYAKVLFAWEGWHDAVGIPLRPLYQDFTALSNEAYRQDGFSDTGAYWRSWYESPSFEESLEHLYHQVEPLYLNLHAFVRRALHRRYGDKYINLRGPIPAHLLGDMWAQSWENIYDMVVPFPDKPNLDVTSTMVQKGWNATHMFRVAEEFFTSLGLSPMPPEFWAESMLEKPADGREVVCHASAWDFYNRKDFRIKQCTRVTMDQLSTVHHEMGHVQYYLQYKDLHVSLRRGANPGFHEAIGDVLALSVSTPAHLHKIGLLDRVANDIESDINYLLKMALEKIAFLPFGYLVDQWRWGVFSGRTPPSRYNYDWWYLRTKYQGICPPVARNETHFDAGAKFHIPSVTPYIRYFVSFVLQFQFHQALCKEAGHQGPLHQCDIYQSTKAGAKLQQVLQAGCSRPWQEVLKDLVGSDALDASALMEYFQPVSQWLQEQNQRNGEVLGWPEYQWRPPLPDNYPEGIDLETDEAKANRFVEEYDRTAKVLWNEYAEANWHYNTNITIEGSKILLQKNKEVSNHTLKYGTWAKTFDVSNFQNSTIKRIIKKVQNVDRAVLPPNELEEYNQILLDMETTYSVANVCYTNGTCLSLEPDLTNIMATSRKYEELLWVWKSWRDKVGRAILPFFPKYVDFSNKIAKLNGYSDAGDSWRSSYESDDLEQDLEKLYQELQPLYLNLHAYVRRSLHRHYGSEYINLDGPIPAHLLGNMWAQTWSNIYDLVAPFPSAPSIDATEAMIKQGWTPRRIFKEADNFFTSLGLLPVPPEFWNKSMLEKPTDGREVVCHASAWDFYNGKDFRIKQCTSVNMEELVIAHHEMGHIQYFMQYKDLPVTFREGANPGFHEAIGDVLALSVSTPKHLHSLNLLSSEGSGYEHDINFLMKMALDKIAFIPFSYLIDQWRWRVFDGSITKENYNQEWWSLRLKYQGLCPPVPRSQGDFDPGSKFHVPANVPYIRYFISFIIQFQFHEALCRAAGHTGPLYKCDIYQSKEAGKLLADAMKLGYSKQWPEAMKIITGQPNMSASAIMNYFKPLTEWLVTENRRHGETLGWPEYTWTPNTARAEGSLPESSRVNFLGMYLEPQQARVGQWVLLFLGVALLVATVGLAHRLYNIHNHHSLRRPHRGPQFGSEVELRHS
Description: ACE inhibition activity (Experiment D-1). The settings on record: rat lung membrane fraction, pH 8.3. The class given is biochemical. The protocol:
As a source of the enzyme ACE, a membrane fraction prepared from rat lung in accordance with the method of Wu-Wong et al. (Characterization of Endthelin Converting Enzyme in Rat Lung., Junshyum R. Wu-Wong, Gerald, P. Budzik, Edward M. Devine and Terry J. Opgenorth, Biochem. Biophys. Res. Commun., 1990, 171, 1291-1296.) was used. The ACE activity was determined with the use of a modification (modified to a borate buffer, pH 8.3) of the method of Cushman and Cheung (Spectrophotometric Assay and Properties of the Angiotensin-Converting Enzyme of Rabbit Lung., Cushman D. W. and Cheung H. S., 1971, 20, 1637-1648.). Now the procedure will be briefly described.
In the presence of ACE, the hippurate liberated from hippuryl-histidine-leucine (Hippuryl-His-Leu (Peptide Institute Inc., Japan)) was extracted with ethyl acetate and then the absorbance was measured at a wavelength of 228 nm.
(§1) To determine the NEP inhibition activity and the ACE inhibition activity, the inhibitor was added to the assay systems of both enzyme activities as described above in such a manner as to give the final concentrations of 1, 3, 10, 30, 100, 300 and 1000 nM and inhibition curves were prepared. Then the concentration at which 50% inhibition was achieved was taken as IC50.

The test system of assay [2] is SHR. Description: Hypotensive effect on SHR, i.v. (Experiment D-2). The class given is in vivo, Spontaneously hypertensive rats. As for the experimental part:
Spontaneously hypertensive rats (SHR) aged 15 to 20 weeks were anesthetized by intraperitoneally administering thiopental sodium (50 mg/kg). The depth of anesthesia was maintained by optionally effecting supplemental anesthesia (5 mg/kg, i.v.). Catheters were inserted into the left common carotid artery and the vein respectively for the measurement of blood pressure and for the administration of a medicament. The cardiac rate was counted by using blood pressure as a trigger.
When the blood pressure became stable after the completion of the operation, the comparative compound or the compound of Example 9 was intravenously administered in doses of 0.1, 0.3 and 1.0 mg/kg and changes in blood pressure and cardiac rate were measured. Following the administration, the measurement was effected for 10 minutes in the cases of 0.1 and 0.3 mg/kg or for 30 minutes in the case of 1.0 mg/kg.

For assay [3], the target named is T2, NEP (Rattus norvegicus, UniProt P07861).
T2 sequence (P07861 1-750): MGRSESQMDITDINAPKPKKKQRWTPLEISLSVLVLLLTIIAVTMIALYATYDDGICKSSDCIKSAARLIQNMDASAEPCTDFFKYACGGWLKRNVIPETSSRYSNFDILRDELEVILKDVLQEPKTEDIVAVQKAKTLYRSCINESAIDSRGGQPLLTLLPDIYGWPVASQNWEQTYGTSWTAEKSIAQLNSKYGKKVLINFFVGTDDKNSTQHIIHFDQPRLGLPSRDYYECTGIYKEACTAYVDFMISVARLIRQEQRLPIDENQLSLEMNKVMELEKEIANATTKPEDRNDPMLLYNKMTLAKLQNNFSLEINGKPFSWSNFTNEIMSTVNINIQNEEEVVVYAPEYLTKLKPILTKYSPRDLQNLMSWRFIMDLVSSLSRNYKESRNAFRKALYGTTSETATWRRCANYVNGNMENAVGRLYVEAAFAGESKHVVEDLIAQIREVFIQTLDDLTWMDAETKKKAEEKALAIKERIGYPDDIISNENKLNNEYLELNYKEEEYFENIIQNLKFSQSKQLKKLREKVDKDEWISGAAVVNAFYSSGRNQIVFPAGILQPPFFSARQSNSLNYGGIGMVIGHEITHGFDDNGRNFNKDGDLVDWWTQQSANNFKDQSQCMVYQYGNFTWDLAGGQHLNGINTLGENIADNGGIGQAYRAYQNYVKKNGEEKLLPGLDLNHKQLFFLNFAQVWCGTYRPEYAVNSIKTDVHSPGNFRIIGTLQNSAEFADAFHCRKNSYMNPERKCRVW
Nature of the assay: NEP inhibition activity (Experiment D-1). The class given is biochemical. Also noted: membrane fraction prepared from rat renal cortex; from tissue; host or cells: rat renal cortex, membrane fraction (method of Booth and Kenny). The settings on record: rat renal cortex membrane fraction. As for the experimental part: As a source of the enzyme NEP, a membrane fraction prepared from rat renal cortex in accordance with the method of Booth and Kenny (A Rapid Method for the Purification of Microvilli from Rabbit Kidney., Andrew G. Booth and A. John Kenny, Biochem. j., 1974, 142, 575-581.) was employed. The NEP activity was determined in accordance with the method of Orlowsky and Wilk (Purification and Specificity of a Membrane-Bound Metalloendpeptidase from Bovine Pituitaries., Marian Orlowsky and Shrwin Wilk, Biochemistry, 1981, 20, 4942-4950.). Now the procedure will be briefly described.
As a substrate, benzoyl-glycine-arginine-arginine-2-naphthylamide benzoyl-Gly-Arg-Arg-2-naphthylamide (Nova Biochem, Switzerland)) was used. In the presence of an NEP enzyme preparation and excessive leucine aminopeptidase (sigma chemical Co., U.S.A.), the liberated naphthylamine was made to undergo color development with first garnet (Sigma chemical Co., U.S.A.), followed by the measurement of the absorbance at a wavelength of 540 nm.
as §1

The test system of assay [4] is SHR. Description: Hypotensive effect on SHR through intravenous administration (separate experiment). The class given is in vivo. The settings on record: Rattus norvegicus, read-out: dose to decrease the blood pressure by 10%. From the text: In addition to the above-mentioned Pharmacological Experiment Examples, an experiment was separately effected with the use of SHR for examining hypotensive effects through intravenous administration. As the result, in the comparison of the conventionally known double inhibitors (1) [S-(R*,R*)]-2,3,4,5-tetrahydro-3-[(2-mercapto-[…])amino]-2-oxo-1H-benzazepine-1-acetic acid and (2) [S-(R*,R*)]-2,3,4,5-tetrahydro-3-[(2-mercapto-1-oxo-4-methylpentyl)amino]- 2-oxo-1H-benzazepine-1-acetic acid with the compounds of the present invention, Example C-8 and Example C-10, the inhibitors (1) and (2) should be administered each in a dose of 1.0 mg/kg to decrease the blood pressure by 10%, whereas the administration of 0.03 to 0.1 mg/kg of the compound of Example C-8 and the administration of 0.1 to 0.3 mg/kg of the compound of Example C-10 each achieved the same effect.

Assay [5] deals with SHR. Description: Hypotensive effect on SHR, i.v. (Experiment C-5). The class given is in vivo, rat (SHR). The protocol: SHRs aged 15 to 20 weeks were anesthetized by intraperitoneally administering thiopental sodium (50 mg/kg). The depth of anesthesia was maintained by optionally effecting supplemental anesthesia (5 mg/kg, i.v.). Catheters were inserted into the left common carotid artery and the vein respectively for the measurement of blood pressure and for the administration of a medicament. The cardiac rate was counted by using blood pressure as a trigger.
When the blood pressure became stable after the completion of the operation, the comparative compound was intravenously administered in 0.1, 0.3 and 1.0 mg/kg and changes in blood pressure and cardiac rate were measured. Following the administration, the measurement was effected for 10 minutes in the cases of 0.1 and 0.3 mg/kg or for 30 minutes in the case of 1.0 mg/kg. The invention compound was intravenously administered in 0.03, 0.1 and 0.3 mg/kg and the measurement was effected for 10 minutes after the administration in the cases of 0.03 and 0.1 mg/kg or for 30 minutes after the administration in the case of 0.3 mg/kg.

The mark [6] stands for this setting: within 30 minutes after i.v. administration.

Each structure is given as a SMILES string.

Consider `COc1ccc(C[C@H](S)C(=O)N[C@H]2Cc3ccc(NS(C)(=O)=O)cc3[C@H]3CCC[C@@H](C(=O)O)N3C2=O)cc1` [Example D-6, [4S-[4α,7α(R*),12bβ]]-11-methylsulfonylamino-7-[[(S)-2-mercapto-3-(4-methoxyphenyl)-1-oxopropyl]amino-6-oxo-1,2,3,4,6,7,8,12b-octahydropyrido-[2,1-a][2]benzazepine-4-carboxylic acid], for which 0.012 µM corresponded to half-maximal inhibition in assay [1] (IC50). In assay [2] (1.0 mg/kg i.v.), the “decrease in blood pressure / hypotensive effect” value worked out at 25%. Besides, in assay [2] (SHR, i.v.), the cardiac rate result is on record as “tended to gradually decrease” and the “hypotensive effect on SHR relative to the comparative compound” value was “about three times that of the comparative compound”. The IC50 (usually the concentration that gives 50% inhibition) in assay [3] was 0.038 µM.
Regarding `CS(=O)(=O)Nc1ccc2c(c1)[C@H]1CCC[C@@H](C(=O)O)N1C(=O)[C@@H](NC(=O)[C@@H](S)Cc1ccccc1)C2` [Example D-5, [4S-[4α,7α(R*),12bβ]]-11-methylsulfonylamino7-[[(S)-2-mercapto-3-phenyl-1-oxopropyl)amino-6-oxo-1,2,3,4,6,7,8,12b-octahydropyrido-[2,1-a][2]benzazepine-4-carboxylic acid], the values for the IC50 in assay [1] and in assay [3] were 0.017 µM and 0.033 µM, respectively.
Regarding `O=C(O)CN1C(=O)[C@@H](NC(=O)[C@@H](S)Cc2ccccc2)CCc2ccccc21` [inhibitor (1)], in assay [4], the ED (10% decrease in blood pressure) is 1 mg/kg.
As to `COc1ccc(CC(S)C(=O)N[C@H]2Cc3ccccc3[C@H]3SC[C@H](C(=O)O)N3C2=O)cc1` (stereo partly drawn) [Comp. cpd.*^1], the values for the 50% inhibitory concentration (IC50) in assay [1] and in assay [3] were 0.011 µM and 0.014 µM, respectively.
With `CC(C)C[C@H](S)C(=O)N[C@H]1CCc2ccccc2N(CC(=O)O)C1=O` [inhibitor (2), [S-(R*,R*)]-2,3,4,5-tetrahydro-3-[(2-mercapto-1-oxo-4-methylpentyl)amino]-2-oxo-1H-benzazepine-1-acetic acid], in assay [4], the ED (10% decrease in blood pressure) was determined as 1 mg/kg.
As for `O=C(N[C@H]1Cc2ccccc2[C@H]2CCC[C@@H](C(=O)O)N2C1=O)[C@@H](S)Cc1ccccc1` [comparative compound, reference compound], the cardiac rate result in assay [2] (SHR, i.v.) is listed as “tended to gradually decrease”; in assay [5] (SHR, i.v.), “tended to gradually decrease”. For the same compound, the “return of blood pressure” value in assay [2] (setting [6]) and in assay [5] (setting [6]) was “did not return within 30 minutes” each time.

The record behind these values is US5679671A, “Amino acid derivative” (Eisai Co., Ltd., priority 1993, dated 1997).
